{"source": "PubChem BioAssay (NCI)", "assay_in_all_cases": "inhibition of tumour cell growth, NCI panel, 48 h", "key": {"CAKI-1 renal": {"test_system": "CAKI-1 renal"}, "SN12C renal": {"test_system": "SN12C renal"}, "OVCAR-4 ovarian": {"test_system": "OVCAR-4 ovarian"}, "LOX IMVI melanoma": {"test_system": "LOX IMVI melanoma"}, "HOP-92 NSCLC": {"test_system": "HOP-92 NSCLC"}, "U251 CNS": {"test_system": "U251 CNS"}, "UACC-257 melanoma": {"test_system": "UACC-257 melanoma"}, "HT29 colon": {"test_system": "HT29 colon"}, "NCI-H226 lung": {"test_system": "NCI-H226 lung"}, "SW-620 colon": {"test_system": "SW-620 colon"}, "HOP-62 NSCLC": {"test_system": "HOP-62 NSCLC"}, "SF-295 CNS": {"test_system": "SF-295 CNS"}, "HCT-116 colon": {"test_system": "HCT-116 colon"}, "SR leukemia": {"test_system": "SR leukemia"}, "MDA-MB-435": {"test_system": "MDA-MB-435"}, "MOLT-4 leukemia": {"test_system": "MOLT-4 leukemia"}, "RXF 393 renal": {"test_system": "RXF 393 renal"}, "NCI-H522 lung": {"test_system": "NCI-H522 lung"}, "HCT-15 colon": {"test_system": "HCT-15 colon"}, "MCF7 breast": {"test_system": "MCF7 breast"}, "KM12 colon": {"test_system": "KM12 colon"}, "786-0 renal": {"test_system": "786-0 renal"}, "PC-3 prostate": {"test_system": "PC-3 prostate"}, "OVCAR-8 ovarian": {"test_system": "OVCAR-8 ovarian"}, "NCI-H460 lung": {"test_system": "NCI-H460 lung"}, "COLO 205 colon": {"test_system": "COLO 205 colon"}, "SNB-19 CNS": {"test_system": "SNB-19 CNS"}, "SNB-75 CNS": {"test_system": "SNB-75 CNS"}, "ACHN renal": {"test_system": "ACHN renal"}, "OVCAR-5 ovarian": {"test_system": "OVCAR-5 ovarian"}, "DU-145 prostate": {"test_system": "DU-145 prostate"}, "MALME-3M melanoma": {"test_system": "MALME-3M melanoma"}, "NCI-H23 lung": {"test_system": "NCI-H23 lung"}, "IGROV1 ovarian": {"test_system": "IGROV1 ovarian"}, "SK-OV-3 ovarian": {"test_system": "SK-OV-3 ovarian"}, "K-562 leukemia": {"test_system": "K-562 leukemia"}, "HCC-2998 colon": {"test_system": "HCC-2998 colon"}, "HL-60(TB) leukemia": {"test_system": "HL-60(TB) leukemia"}, "HS 578T breast": {"test_system": "HS 578T breast"}, "SK-MEL-28 melanoma": {"test_system": "SK-MEL-28 melanoma"}, "UO-31 renal": {"test_system": "UO-31 renal"}, "SF-268 CNS": {"test_system": "SF-268 CNS"}, "EKVX NSCLC": {"test_system": "EKVX NSCLC"}, "T-47D breast": {"test_system": "T-47D breast"}, "SK-MEL-5 melanoma": {"test_system": "SK-MEL-5 melanoma"}, "A498 renal": {"test_system": "A498 renal"}, "M14 melanoma": {"test_system": "M14 melanoma"}, "SK-MEL-2 melanoma": {"test_system": "SK-MEL-2 melanoma"}, "TK-10 renal": {"test_system": "TK-10 renal"}, "CCRF-CEM leukemia": {"test_system": "CCRF-CEM leukemia"}, "UACC-62 melanoma": {"test_system": "UACC-62 melanoma"}, "OVCAR-3 ovarian": {"test_system": "OVCAR-3 ovarian"}, "NCI/ADR-RES ovarian": {"test_system": "NCI/ADR-RES ovarian"}, "MDA-MB-231 breast": {"test_system": "MDA-MB-231 breast"}, "SF-539 CNS": {"test_system": "SF-539 CNS"}, "RPMI-8226 leukemia": {"test_system": "RPMI-8226 leukemia"}, "BT-549 breast": {"test_system": "BT-549 breast"}, "A549 NSCLC": {"test_system": "A549 NSCLC"}, "MDA-N": {"test_system": "MDA-N"}}, "note": "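Exposure lasted 48 hours, with cells grown in 96-well plates and compounds tested at five concentrations. TGI: total growth inhibition.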", "data": [{"smiles": "Nc1nc(N)c(-c2cccc(C(F)(F)F)c2)c(Cc2cccc(C(F)(F)F)c2)n1", "values": [{"measurement": "TGI", "setting": "CAKI-1 renal", "value": 21.9, "unit": "µM"}, {"measurement": "TGI", "setting": "SN12C renal", "value": 15.3, "unit": "µM"}, {"measurement": "TGI", "setting": "OVCAR-4 ovarian", "value": 31, "unit": "µM"}, {"measurement": "TGI", "setting": "LOX IMVI melanoma", "value": 17.9, "unit": "µM"}, {"measurement": "TGI", "setting": "HOP-92 NSCLC", "value": 25.8, "unit": "µM"}, {"measurement": "TGI", "setting": "U251 CNS", "value": 29.6, "unit": "µM"}, {"measurement": "TGI", "setting": "UACC-257 melanoma", "value": 20.2, "unit": "µM"}, {"measurement": "TGI", "setting": "HT29 colon", "value": 10.9, "unit": "µM"}, {"measurement": "TGI", "setting": "NCI-H226 lung", "value": 30.1, "unit": "µM"}, {"measurement": "TGI", "setting": "SW-620 colon", "value": 26.7, "unit": "µM"}, {"measurement": "TGI", "setting": "HOP-62 NSCLC", "value": 30.1, "unit": "µM"}, {"measurement": "TGI", "setting": "SF-295 CNS", "value": 22.7, "unit": "µM"}, {"measurement": "TGI", "setting": "HCT-116 colon", "value": 12.2, "unit": "µM"}, {"measurement": "TGI", "setting": "SR leukemia", "value": 17.5, "unit": "µM"}, {"measurement": "TGI", "setting": "MDA-MB-435", "value": 22.5, "unit": "µM"}, {"measurement": "TGI", "setting": "MOLT-4 leukemia", "value": 17.7, "unit": "µM"}, {"measurement": "TGI", "setting": "RXF 393 renal", "value": 22.5, "unit": "µM"}, {"measurement": "TGI", "setting": "NCI-H522 lung", "value": 15.4, "unit": "µM"}, {"measurement": "TGI", "setting": "HCT-15 colon", "value": 16.5, "unit": "µM"}, {"measurement": "TGI", "setting": "MCF7 breast", "value": 18.5, "unit": "µM"}, {"measurement": "TGI", "setting": "KM12 colon", "value": 21.7, "unit": "µM"}, {"measurement": "TGI", "setting": "786-0 renal", "value": 15.3, "unit": "µM"}, {"measurement": "TGI", "setting": "PC-3 prostate", "value": 24.1, "unit": "µM"}, {"measurement": "TGI", "setting": "OVCAR-8 ovarian", "value": 24.6, "unit": "µM"}, {"measurement": "TGI", "setting": "NCI-H460 lung", "value": 13.5, "unit": "µM"}, {"measurement": "TGI", "setting": "COLO 205 colon", "value": 19.6, "unit": "µM"}, {"measurement": "TGI", "setting": "SNB-19 CNS", "value": 19.2, "unit": "µM"}, {"measurement": "TGI", "setting": "SNB-75 CNS", "value": 29, "unit": "µM"}, {"measurement": "TGI", "setting": "ACHN renal", "value": 13.5, "unit": "µM"}, {"measurement": "TGI", "setting": "OVCAR-5 ovarian", "value": 18.8, "unit": "µM"}, {"measurement": "TGI", "setting": "DU-145 prostate", "value": 21.5, "unit": "µM"}, {"measurement": "TGI", "setting": "MALME-3M melanoma", "value": 25.7, "unit": "µM"}, {"measurement": "TGI", "setting": "NCI-H23 lung", "value": 13, "unit": "µM"}, {"measurement": "TGI", "setting": "IGROV1 ovarian", "value": 19.3, "unit": "µM"}, {"measurement": "TGI", "setting": "SK-OV-3 ovarian", "value": 28.1, "unit": "µM"}, {"measurement": "TGI", "setting": "K-562 leukemia", "value": 17.7, "unit": "µM"}, {"measurement": "TGI", "setting": "HCC-2998 colon", "value": 11.3, "unit": "µM"}, {"measurement": "TGI", "setting": "HL-60(TB) leukemia", "value": 17.7, "unit": "µM"}, {"measurement": "TGI", "setting": "HS 578T breast", "value": 35, "unit": "µM"}, {"measurement": "TGI", "setting": "SK-MEL-28 melanoma", "value": 24.8, "unit": "µM"}, {"measurement": "TGI", "setting": "UO-31 renal", "value": 19.4, "unit": "µM"}, {"measurement": "TGI", "setting": "SF-268 CNS", "value": 20, "unit": "µM"}, {"measurement": "TGI", "setting": "EKVX NSCLC", "value": 21.1, "unit": "µM"}, {"measurement": "TGI", "setting": "T-47D breast", "value": 32.4, "unit": "µM"}, {"measurement": "TGI", "setting": "SK-MEL-5 melanoma", "value": 17.6, "unit": "µM"}, {"measurement": "TGI", "setting": "A498 renal", "value": 15.9, "unit": "µM"}, {"measurement": "TGI", "setting": "M14 melanoma", "value": 17.4, "unit": "µM"}, {"measurement": "TGI", "setting": "SK-MEL-2 melanoma", "value": 20.7, "unit": "µM"}, {"measurement": "TGI", "setting": "TK-10 renal", "value": 20.9, "unit": "µM"}, {"measurement": "TGI", "setting": "CCRF-CEM leukemia", "value": 44.3, "unit": "µM"}, {"measurement": "TGI", "setting": "UACC-62 melanoma", "value": 14.8, "unit": "µM"}, {"measurement": "TGI", "setting": "OVCAR-3 ovarian", "value": 22.1, "unit": "µM"}, {"measurement": "TGI", "setting": "NCI/ADR-RES ovarian", "value": 23.1, "unit": "µM"}, {"measurement": "TGI", "setting": "MDA-MB-231 breast", "value": 26.2, "unit": "µM"}, {"measurement": "TGI", "setting": "SF-539 CNS", "value": 16.6, "unit": "µM"}, {"measurement": "TGI", "setting": "RPMI-8226 leukemia", "value": 21.6, "unit": "µM"}, {"measurement": "TGI", "setting": "BT-549 breast", "value": 22.4, "unit": "µM"}, {"measurement": "TGI", "setting": "A549 NSCLC", "value": 13.3, "unit": "µM"}, {"measurement": "TGI", "setting": "MDA-N", "value": 17.9, "unit": "µM"}]}]}
